3 compounds from US8318424B2, “High-throughput RNA structure analysis” (The University of North Carolina at Chapel Hill, priority 2006, dated 2012) can be followed below.

In general, half-life refers to how long it takes for the measured level to halve.

One series has as its system pAp-ethyl. In words: 2′-O-adduct formation with [32P]-labeled pAp-ethyl. The conditions noted are these: for change in rate of reaction with pAp-ethyl from 0 to 20 mM Mg2+: 0 to 20 mM Mg2+ (FIG. 6). Here is the method: (§1) Hydrolysis was followed by adding (1.5 mM NMIA or 2.0 mM 1M7 in 300 μL DMSO) reagent to 1.1× buffer (2.7 mL, 6.7 mM MgCl2, 111 mM NaCl, 111 mM HEPES (pH 8.0)) equilibrated at 37° C. in a cuvette. Pseudo-first-order rates were obtained by monitoring the absorbance of the hydrolysis product (at 360 nm for 2-methylaminobenzoate and 430 nm for 2-methylamino-4-nitrobenzoate). Rates of adduct formation for [^32P]-labeled pAp-ethyl (10,000 cpm/μL) were obtained by adding 10% (v/v) reagent (5 mM final NMIA or 1M7 in DMSO) to 1.1× reaction buffer, quenching the reaction with 1 vol 250 mM dithiothreitol, resolving by gel electrophoresis (30% polyacrylamide; 29:1 acrylamide:bisacrylamide; 0.4 mm×28.5 cm×23 cm; 30 W; 45 minutes), and quantifying by phosphorimaging. Reaction rates were obtained using an equation that accounts for parallel reaction of NMIA or 1M7 by 2′-O-adduct formation (kadduct) and by hydrolysis (khydrolysis): fraction product=1−exp[(kadduct[reagent]/khydrolysis)(e^−(khydrolysis)t−1)]. Synthesis of Bacillus subtilis RNase P RNA
The ability of each compound to react with 3′-phosphoethyl-5′-adenosine monophosphate (pAp-ethyl) was then evaluated. pAp-ethyl contains a 2′-hydroxyl and 3′-phosphodiester monoanion.

Series [1] in a line: Reagent hydrolysis followed by UV absorbance of the aminobenzoate product. The format is physicochemical. Here is the method: One (1) μL NMIA in DMSO was added to the (+) NMIA tube and 1 μL neat DMSO was added to the (−) NMIA tube. The tubes were then mixed well. The reaction was incubated for 5 NMIA hydrolysis half-lives. To estimate the NMIA half-life between 15° C. and 75° C., the following equation was used: half life(minutes)=360×exp[−0.102×temperature(° C.)]. […] Thus, at 37° C., the reaction was incubated for about 45 minutes.
as §1
The reagent hydrolysis was monitored as the increase in UV absorbance of the aminobenzoate products. […] In contrast, NMIA required over 20 minutes to react to completion (FIG. 5).

A further series has as its target T1, NCp7-RNA interactions (Human immunodeficiency virus type 1 group M subtype B, UniProt P12493).
T1 construct: expressed in transfected cells; host or cells: 293T cells cotransfected with pNL4-3 and pHCMV-G; the protein sits in the released virus particles
In words: AT-2 treatment of HIV-1 virions analyzed by hSHAPE. The conditions noted are these: in virio compared with AT-2 treated virions. An excerpt: The most prominent protein ligand for genomic RNA in mature HIV virions is the nucleocapsid protein. The nucleocapsid protein (NCp7) contains two highly conserved zinc-knuckle motifs comprised of cysteine and histidine residues that coordinate zinc ions and bind preferentially to guanosine. These compact motifs are flanked by positively charged residues that interact at adjacent RNA elements. Zinc ejecting agents such as 2,2′-dithioldipyridine (or AT-2) quantitatively disrupt interactions between the zinc ion and its cysteine ligands to compromise NCp7-RNA interactions, but leave the surface of the virus particle intact. Nucleocapsid-RNA interactions were disrupted in situ by treating virions with AT-2. The resulting genomic RNA was analyzed using hSHAPE.
Aldrithiol-2 (AT-2, systematic name 2,2′-dithiodipyridine; 0.5 M in DMSO, 2.0 mL) or DMSO (2.0 mL) was added to 1.0 L virus supernatant and incubated overnight at 4° C. Virus particles from the (+) and (−) AT-2 experiments were pelleted separately by centrifugation (110,000 g, 4° C., 1.5 hours) through a 20% (w/v) sucrose cushion in phosphate buffered saline. Pellets were resuspended in 1.0 mL NMIA reaction buffer (50 mM Hepes (pH 8), 200 mM NaCl, 0.1 mM EDTA, and 10% fetal bovine serum). […]

The test system of another series is retroviral membrane. In words: NMIA modification of genomic RNA inside HIV-1 viral particles. Here is the method: The structure of HIV-1 genomic RNA inside infectious virions was analyzed by treating viral particles with NMIA and then extracting and processing the modified RNA (the in virio state). Numerous reproducible differences between the ex virio and in virio states were observed that report virion-specific RNA structures and RNA-protein interactions.
Concentrated samples of either purified viral particles or particles treated with AT-2 (500 μL) in NMIA reaction buffer were treated with NMIA (50 μL, 100 mM) or neat DMSO (50 μL) for 50 minutes at 37° C. The virus particle production, AT-2 treatment, and NMIA modification steps were performed as a single continuous process and without intermediate storage steps.

Series [2] is described as follows: Solubility of reagent stock in DMSO. The conditions noted are these: organic solvent or mixture; 10× stock in DMSO; read-out: stock concentration limit due to solubility of the reagent. The format is physicochemical. The procedure:
The concentration of this solution can vary with RNA length. For RNA reads of 100, 200 and 300 nucleotides, 10×NMIA concentrations of 130, 65 and 30 mM, can be used.

A value given as a limit tells only on which side of the number the result lay.

For `Cn1c(=O)oc(=O)c2ccc([N+](=O)[O-])cc21` [1M7, 1-methyl-7-nitroisatoic anhydride], in the series with pAp-ethyl, the “increase in rates of hydrolysis and of 2′-hydroxyl acylation relative to NMIA” value was 20 fold; the “change in rate of reaction with pAp-ethyl from 0 to 20 mM Mg2+” value was “negligible”. The “rate of reaction with pAp-ethyl, compared with NMIA” value in the series with pAp-ethyl (5 mM reagent) was “significantly more rapidly”. In series [1] (37° C., pH 8.0 buffer), the “time until reaction is complete” value is reported as “about 70 seconds”. In series [1] (HEPES buffer with 10% DMSO, 37° C., pH 8.0 buffer, 10% DMSO), this compound had a half-life at 0.2 mM of 0.233 min. Besides, in series [1] (control experiments), the “dependence of hydrolysis on Mg2+ concentration” value is on record as “independent of Mg^2+ concentration”.

In the case of `c1ccc(SSc2ccccn2)nc1` [AT-2, 2,2′-dithiodipyridine], the “specificity of the effect of AT-2 treatment on SHAPE reactivity of genomic RNA” value at NCp7-RNA interactions is reported as “highly specific”.

`Cn1c(=O)oc(=O)c2ccccc21` [NMIA, N-methylisatoic anhydride]: in the series on retroviral membrane, the “passage across the retroviral membrane” value is reported as “readily crosses the retroviral membrane”. For the same compound, the “change in rate of reaction with pAp-ethyl from 0 to 20 mM Mg2+” value in the series with pAp-ethyl is listed as “greater than 2 fold”. The “time required to react to completion” value in series [1] (37° C., pH 8.0 buffer) is reported as “over 20 minutes”. Besides, in series [1] (pH 8, 37° C., from half life = 360×exp[−0.102×temperature], read-out: NMIA hydrolysis half-life), the half-life was found to be 8.3 min. In series [2], the solubility was at most 130 mM.
